Common to all, as to experiment: growth of human tumour cells (NCI), 48 h
Assay [1] relates to 786-0 renal.
Assay [2] relates to A549 NSCLC.
Assay [3] deals with IGROV1 ovarian.
Assay [4] concerns KM12 colon.
In assay [5] the test system is NCI-H226 lung.
For assay [6], the system named is SK-MEL-28 melanoma.
Assay [7] concerns SK-OV-3 ovarian.
The test system of assay [8] is UACC-257 melanoma.
In assay [9] the test system is RPMI-8226 leukemia.

For 30 compounds, TGI and GI50 results are on record in PubChem BioAssay (NCI).

Each structure is given as a SMILES string.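 Five compound concentrations were applied to cells in 96-well plates for 48 hours; endpoints were derived by simple linear interpolation of the resulting dose-response curve. Abbreviation: GI50, concentration required for 50% inhibition of growth. The concentration for full growth arrest is given as TGI.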

Regarding `O=C(Nc1ccc(Cl)cc1Cl)C1C(=O)C(=O)N(c2ccc(Cl)cc2Cl)C1=O` (centres undefined), the TGI in assay [1] was > 100 µM; in assay [2], > 100 µM; in assay [3], > 100 µM; in assay [4], > 100 µM; in [5], 84.1 µM; in [6] it was > 100 µM. The TGI in assay [7] and in assay [8] was > 100 µM each time.

On to `Cc1cccc(C)c1CO`, for which the TGI in assay [1], in assay [2], in [3], in assay [4], in assay [5] and in [9] was > 100 µM each time. In addition, the TGI in assay [7] and in [8] was > 100 µM each time.

For the compound `CC(=O)OC1CCn2nnc(CO)c21` (centres undefined), the TGI in assay [1], in [2], in assay [3], in assay [4], in assay [5] and in assay [9] was > 100 µM in each case. Besides, the TGI in assay [6], in assay [7] and in assay [8] was > 100 µM in each case.

`COc1ccc(C(=O)C(C(=O)CC(=O)Nc2cccc(C(F)(F)F)c2)c2ccc(OC)cc2)cc1` (centres undefined): the TGI in assay [1], in assay [2], in assay [3], in assay [4], in assay [5] and in assay [9] was > 100 µM in each case. Besides, the TGI in assay [6], in assay [7] and in assay [8] was > 100 µM throughout.

For `O=C1C=CC(=O)C12CCc1ccccc12`, the TGI in assay [1] was > 100 µM; in assay [2], > 100 µM; in [3], > 100 µM; in assay [4], > 100 µM; in assay [5], > 100 µM; in [9], 45.8 µM. Further, the TGI in assay [6], in assay [7] and in assay [8] was > 100 µM each time.

As for `Cn1nc(-c2ccccc2)c(C(=O)/C=C/c2ccc(Cl)cc2)c(N2CCCCC2)c1=O`, the TGI in assay [1] came to 3.67 µM; in [2], 8.65 µM; in [3] it was 4.95 µM; in [9] it was 5.52 µM; in assay [6] it was 14.3 µM; in assay [7], 9.81 µM.

With `COc1ccc(NC(=O)CC/C(CC(=O)C(C)(C)C)=N\NC(=O)C(=O)NN)cc1`, the TGI in assay [1], in assay [2], in assay [3], in assay [4], in [5] and in assay [9] was > 100 µM each time. Also, the TGI in assay [6], in assay [7] and in assay [8] was > 100 µM each time.

In the case of `COC(=O)C1=C(O)c2cc(-c3ccccc3)c(-c3ccccc3)c(C#N)c2NC(=O)C1`, the TGI was > 100 µM in assay [1]; 54.4 µM in assay [2]; 4.74 µM in assay [3]; > 100 µM in [4]; > 100 µM in assay [6]; > 100 µM in [8].

Take `COc1cc(OC)c(SSCCCCS(=O)O)c(OC)c1`: the TGI in assay [1] amounted to 35.4 µM; in assay [2] it was 40.3 µM; in assay [3] it was 57.8 µM; in assay [4] it was 29.4 µM; in assay [6] it was 29.7 µM; in [7], 38.6 µM. For the same compound, in [8], the TGI was found to be 23.5 µM.

Take `CC1=C[C@]2(O)C(=O)[C@H](C)C[C@H]3[C@@H](CC[C@@](C)(O)/C=C\2C1=O)C3(C)C`: the TGI was 39.5 µM in assay [1]; > 100 µM in [2]; 53.1 µM in assay [3]; > 100 µM in [4]; > 79.5 µM in assay [5]; > 73.3 µM in [9]. Besides, the TGI in [6] was 33.1 µM; in [7], 98 µM; in [8], 35.7 µM.

Turning to `COc1ccccc1C(O)(c1ccccc1)C(O)(c1ccccc1)c1ccccc1OC` (centres undefined), the TGI in assay [1], in [2], in [3], in [4], in assay [5] and in assay [9] was > 100 µM each time. Besides, the values for the TGI in [6], in [7] and in [8] were > 100 µM, > 31.6 µM and > 100 µM, respectively.

`O=C(c1ccccc1)c1c(-c2ccccc2)sc2nc3ccccc3nc12`: the TGI in assay [1], in [2], in assay [3], in assay [4], in [5] and in [9] was > 100 µM each time. For the same compound, the TGI in [6], in assay [7] and in assay [8] was > 100 µM in each case.

In the case of `NC(=O)CCC(Nc1c2ccccc2nc2ccccc12)C(=O)O` (centres undefined), the TGI in assay [1], in assay [2], in assay [4], in assay [5], in [9] and in assay [6] was > 100 µM each time. Further, the TGI in [8] is > 100 µM.

For the compound `NC[C@H]1Nc2ccccc2[C@@H](O)C1O` (some centres undefined), the TGI in assay [1], in assay [2], in assay [3], in [4], in assay [5] and in assay [9] was > 100 µM throughout. The TGI in [6], in assay [7] and in assay [8] was > 100 µM each time.

`O=C(O)Cc1cc(=O)[nH]c2c1/C(=N/O)CCC2`: the TGI in [1], in assay [2], in assay [3], in [4], in [5] and in assay [9] was > 100 µM in each case. The TGI in assay [6], in [7] and in assay [8] was > 100 µM throughout.

For `O=C(CCc1nnc2s/c(=C\c3ccc(Cl)c(Cl)c3)c(=O)n12)Nc1ccc(Cl)c(Cl)c1`, the TGI is > 100 µM in assay [1]; > 100 µM in assay [2]; > 100 µM in assay [3]; > 100 µM in assay [4]; > 100 µM in assay [5]; 62.2 µM in assay [9]. For the same compound, the TGI in [6], in assay [7] and in [8] was > 100 µM throughout.

As to `COc1ccc(-c2cc(=O)c3ccccc3o2)cc1N`, the TGI in assay [1], in assay [2], in assay [3], in [4], in assay [5] and in [9] was > 100 µM each time. In addition, the TGI in assay [6], in [7] and in [8] was > 100 µM each time.

`CCN(CC)CCCNC(=O)C1COc2cc(-c3cc(=O)c4ccccc4o3)ccc2O1` (centres undefined): the TGI in [1] is > 100 µM; in [2], > 100 µM; in assay [3] it was > 100 µM; in assay [5] it was > 100 µM; in assay [9], > 100 µM; in assay [6], 40.8 µM. The results for the TGI in assay [7] and in assay [8] were > 100 µM and 50.1 µM, respectively.

For the compound `CC(=O)c1cccc(C)c1C(=O)O`, the TGI in assay [1], in [2], in assay [3], in assay [4], in assay [5] and in [9] was > 100 µM each time. Also, the TGI in assay [6], in assay [7] and in [8] was > 100 µM in each case.

Take `CCOC(=O)/C(=C\c1ccc(N(CCC#N)CCC#N)cc1)NC(=O)c1cc([N+](=O)[O-])ccc1Cl`: the TGI in assay [1], in assay [2], in assay [3], in assay [4], in [5] and in [9] was > 100 µM in each case. Besides, the TGI in assay [6], in assay [7] and in assay [8] was > 100 µM throughout.

On to `CC1=C(C(=O)Nc2cc(=O)n(C)c(=O)n2C)C(c2cccc([N+](=O)[O-])c2)C(C(=O)Nc2cc(=O)n(C)c(=O)n2C)=C(C)N1`, for which the TGI in assay [1], in [2], in assay [3], in assay [4], in assay [5] and in assay [9] was > 100 µM each time. Also, the TGI in assay [6], in [7] and in assay [8] was > 100 µM in each case.

`O=C1[C@H]2ON(c3ccccc3)C(c3ccccc3)[C@H]2C(=O)N1c1ccc(Cc2ccc(N3C(=O)[C@@H]4ON(c5ccccc5)C(c5ccccc5)[C@@H]4C3=O)cc2)cc1` (some centres undefined): the TGI in assay [1], in assay [2], in assay [3], in assay [4], in assay [5] and in [9] was > 100 µM throughout. The TGI in assay [6], in assay [7] and in assay [8] was > 100 µM throughout.

In the case of `O=C1Cc2c([nH]c3ccccc23)-c2ccccc2N1`, the TGI in [1] was > 100 µM; in assay [2], > 100 µM; in assay [3] it was 70.8 µM; in assay [4] it was 45.2 µM; in assay [5], > 100 µM; in assay [9], > 100 µM. The TGI in assay [6], in assay [7] and in assay [8] was > 100 µM each time.

In the case of `C=C(C#N)C1OCC2OC(C)(C)OC21` (centres undefined), the TGI is 39.4 µM in assay [1]; > 100 µM in assay [2]; > 100 µM in [3]; > 100 µM in [4]; 43.2 µM in assay [6]; > 100 µM in assay [7]. Further, the TGI in [8] was 30 µM.

As for `O=C1O[C@H](c2ccccc2)[C@@H]2CC3(CCN12)OCCO3`, the TGI in assay [1], in assay [2], in [3], in assay [4], in [5] and in assay [9] was > 100 µM each time. The TGI in [6] and in assay [8] was > 100 µM each time.

Take `CCOC(=O)Cc1ccc2c(c1O)C(=O)c1c(ccc(CC(=O)OCC)c1O)C2=O`: the TGI in [1], in assay [2], in [4], in assay [5], in assay [9] and in [6] was > 100 µM throughout. For the same compound, the TGI in assay [7] and in assay [8] was > 100 µM throughout.

For `Cc1ccc(NC2=C(Cl)C(=O)N(Cc3ccc(Cl)cc3)C2=O)cc1O`, the GI50 in assay [1] was 0.753 µM; in assay [2], 10.5 µM; in [3], 11.2 µM; in [4], 13.8 µM; in assay [5] it was 2.55 µM; in assay [9] it was 2.04 µM. The GI50 is 14.8 µM in assay [6], 10.9 µM in assay [7] and 13 µM in [8]. Moreover, the TGI in [1] is 18.8 µM; in assay [2], 29.2 µM; in assay [3] it was 33 µM; in [4] it was 39.6 µM; in assay [5], 13.3 µM; in [9], 14.8 µM. The figures for the TGI in assay [6], in assay [7] and in assay [8] were 44.4 µM, 32.3 µM and 28.7 µM, respectively.

In the case of `COc1ccc(/C(=N\NC(=O)C(=O)NN)C(c2ccc(OC)cc2)C2(O)C(=O)Nc3ccccc32)cc1` (centres undefined), the TGI in [1], in assay [2], in assay [3], in [4], in assay [5] and in [9] was > 100 µM in each case. Moreover, the TGI in assay [6] and in [7] was > 100 µM in each case.

Consider `O=C1c2ccccc2-c2oc(=O)c3ccccc3c21`, for which the TGI in [1], in [3], in assay [4], in assay [5], in [9] and in assay [6] was > 100 µM in each case. Besides, the TGI in [7] and in assay [8] was > 100 µM each time.

Take `COc1ccc2c3c([nH]c2c1[N+](=O)[O-])C(C)N(Cc1ccc([N+](=O)[O-])cc1)CC3` (centres undefined): the TGI was > 100 µM in assay [1]; > 100 µM in assay [2]; > 100 µM in assay [3]; 49.6 µM in [4]; 42.4 µM in assay [5]; 26.2 µM in [9]. The results for the TGI in assay [6] and in assay [8] were 44.5 µM and 61.5 µM, respectively.
